Reference: patent US5030733A, “Hydroxy-, alkoxy- and benzyloxy-substituted phospholipids” (Hoechst-Roussel Pharmaceticals Incorporated, priority 1989, dated 1991)

System: phenyl-para-quinone induced writhing
Assay: phenyl-para-quinone (PQW) writhing assay for analgesia
Assay type: in vivo
Settings: Mus musculus, sc; 50% inhibition of writhing, s.c., mice; read-out: ED50 (subcutaneous dose at which 50% of the phenyl-para-quinone induced writhing is inhibited)
From the text: The compounds of the present invention are also useful as analgesic agents due to their ability to alleviate pain in mammals. […] Exptl. Biol. Med., 95, 729 (1957)]. Presented in Table 2 is the analgesic effect of some of the compounds of the invention expressed as either the subcutaneous dose at which 50% of the phenyl-para-quinone induced writhing is inhibited in the animals, i.e., the ED50 value, or as the % decrease in writhing at a give dose.

CCC(=O)O[C@](Cc1ccccc1)(c1ccccc1)[C@H](C)CN(C)C [Propoxyphene]
ED50: 3.9 mg/kg
